# Patent US20010034357A1, “Substituted pyridine compounds useful for controlling chemical synaptic transmission” (priority 2000, published 2001)
# Like-named read-outs stand apart in the source and are kept apart here.
# Columns and labels:
# [1] = target: T1, neuronal nicotinic acetylcholine receptors (Rattus norvegicus, UniProt P09483+P12390); experiment: [3H]-cytisine binding to neuronal nicotinic acetylcholine receptors, crude synaptic membranes from whole rat brain
# T1 construct: crude synaptic membrane preparations from whole rat brain; from tissue; host or cells: whole rat brain, crude synaptic membranes
# Method: The in vitro protocols for determination of nicotinic acetylcholine channel receptor binding potencies of ligands was determined as follows.
# Binding of [^3H]-cytisine ([^3H]-CYT) to neuronal nicotinic acetylcholine receptors was accomplished using crude synaptic membrane preparations from whole rat brain (Pabreza et al., Molecular Pharmacol., 1990, 39:9). Washed membranes were stored at −80° C. prior to use. Frozen aliquots were slowly thawed and resuspended in 20 volumes of buffer (containing: 120 mM NaCl, 5 mM KCl, 2 mM MgCl2, 2 mM CaCl2 and 50 mM Tris-Cl, pH 7.4 @4° C.). After centrifuging at 20,000×g for 15 minutes, the pellets were resuspended in 30 volumes of buffer.
# The test compounds were dissolved in water to make 10 mM stock solutions. Each solution was then diluted (1:100) with buffer (as above) and further taken through seven serial log dilutions to produce test solutions from 10^−5 to 10^−11 M.
# Homogenate (containing 125-150 µg protein) was added to triplicate tubes containing the range of concentrations of test compound described above and [^3H]-CYT (1.25 nM) in a final volume of 500 μL. Samples were incubated for 60 minutes at 4° C., then rapidly filtered through Whatman GF/B filters presoaked in 0.5% polyethyleneimine using 3×4 mL of ice-cold buffer. The filters are counted in 4 mL of Ecolume® (ICN). Nonspecific binding was determined in the presence of 10 μM (−)-nicotine and values were expressed as a percentage of total binding. IC50 values were determined with a four-parameter non-linear regression and IC50 values were converted to K1 values using the Cheng and Prusoff correction (K1=IC50/(1+[ligand]/Kd of ligand).
# Each Example number corresponds to the synthetic Examples described above. […] The lower the Ki value, the more affinity for neuronal nicotinic acetylcholine receptors.
# [2] = test system: mouse hot plate paradigm; experiment: mouse hot plate paradigm (analgesia, latency until tenth jump); assay type: in vivo; conditions: mice, intraperitoneal, dosed 30 minutes prior to testing, hot plate 55° C.; for Analgesic MED (μmol/kg): footnote symbols for no effect; for Analgesic MED: minimally effective dose among the doses tested
# Method: An in vivo protocol was utilized to determine the effectiveness of nicotinic acetylcholine receptor ligands as analgesic agents in the mouse hot plate paradigm.
# Separate groups of mice, (n=8/group) were utilized for each dose group. All drugs were administered by the intraperitoneal route of administration. Test drugs were dissolved in water to make a 6.2 mM stock solution. Animals were dosed with this solution (10 mL/kg body weight) for a 62 micromol/kg dose. Lower doses were administered similarly, following serial dilution of the stock solution in half-log increments. Animals were dosed 30 minutes prior to testing in the hot plate. The hot-plate utilized was an automated analgesia monitor (Model #AHP16AN, Omnitech Electronics, Inc. of Columbus, Ohio). The temperature of the hot plate was maintained at 55° C. and a cut-off time of 180 seconds was utilized. A control was run against each compound tested. Latency until the tenth jump was recorded as the dependent measure. An increase in the tenth jump latency relative to the control was considered a significant effect.
# [3] = [3H]-CYT 1.25 nM, whole rat brain membranes, 60 minutes at 4° C., Cheng and Prusoff correction, Table 1, read-out: Ki
# T1 sequence (P09483 31-630): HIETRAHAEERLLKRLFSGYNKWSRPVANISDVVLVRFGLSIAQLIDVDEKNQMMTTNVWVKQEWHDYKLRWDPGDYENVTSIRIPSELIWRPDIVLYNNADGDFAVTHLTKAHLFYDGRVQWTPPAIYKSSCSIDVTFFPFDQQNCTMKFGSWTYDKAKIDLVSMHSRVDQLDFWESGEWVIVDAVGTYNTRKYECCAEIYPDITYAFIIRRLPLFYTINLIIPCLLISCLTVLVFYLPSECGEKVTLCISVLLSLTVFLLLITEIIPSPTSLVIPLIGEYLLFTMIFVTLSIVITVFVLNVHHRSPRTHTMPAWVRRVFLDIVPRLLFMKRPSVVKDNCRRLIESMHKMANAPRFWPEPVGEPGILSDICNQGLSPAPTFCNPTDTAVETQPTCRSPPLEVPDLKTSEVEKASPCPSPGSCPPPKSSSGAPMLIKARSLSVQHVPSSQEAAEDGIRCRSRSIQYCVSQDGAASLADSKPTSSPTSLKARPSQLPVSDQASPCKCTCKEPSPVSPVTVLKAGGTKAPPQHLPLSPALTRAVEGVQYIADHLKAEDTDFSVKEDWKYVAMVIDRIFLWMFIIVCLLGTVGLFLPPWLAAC
# T1 sequence (P12390 25-500): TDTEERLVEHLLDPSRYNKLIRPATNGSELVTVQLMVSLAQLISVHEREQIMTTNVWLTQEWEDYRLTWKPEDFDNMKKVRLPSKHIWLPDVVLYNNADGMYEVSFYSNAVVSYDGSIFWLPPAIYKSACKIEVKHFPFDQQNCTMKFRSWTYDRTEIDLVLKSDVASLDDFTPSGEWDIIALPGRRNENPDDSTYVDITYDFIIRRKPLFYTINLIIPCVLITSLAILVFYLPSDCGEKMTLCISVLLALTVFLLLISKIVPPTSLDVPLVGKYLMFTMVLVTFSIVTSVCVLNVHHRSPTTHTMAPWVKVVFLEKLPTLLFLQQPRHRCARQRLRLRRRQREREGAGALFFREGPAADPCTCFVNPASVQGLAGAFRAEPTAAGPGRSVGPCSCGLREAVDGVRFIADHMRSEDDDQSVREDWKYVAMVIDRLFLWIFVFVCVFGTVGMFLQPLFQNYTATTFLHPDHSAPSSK
Compound,"Ki [1, 3] [nM]",Analgesic MED (μmol/kg) [2],Analgesic MED [2] [µmol/kg],Ki ([1]; Ki (nM)) [nM]
"CC[C@H](N)COc1ccc(Cl)nc1.Cc1ccc(S(=O)(=O)O)cc1 [Example 15, 5-[(S)-2-amino-1-butyloxy]-2-chloro pyridine p-toluenesulfonic acid]",14.7,* (no effect at 62),,
"CN[C@@H](C)COc1cnc(Cl)c(C)c1.Cc1ccc(S(=O)(=O)O)cc1 [Example 12, 5-[(S)-2-methylamino-1-propyloxy]-2-chloro-3-methyl pyridine p-toluenesulfonic acid]",5.47,,62,
"Cc1cc(OC[C@H](C)N(C)C)cnc1Cl.Cc1ccc(S(=O)(=O)O)cc1 [Example 11, 5-[(S)-2-dimethylamino-1-propyloxy]-2-chloro-3-methyl pyridine p-toluenesulfonic acid]",9.6,* (no effect at 62),,
"CN[C@H](C)COc1cnc(Cl)c(Br)c1.Cc1ccc(S(=O)(=O)O)cc1 [Example 34, 5-[(R)-2-methylamino-1-propyloxy]-2-chloro-3-bromo pyridine p-toluenesulfonic acid]",1.48,* (no effect at 62),,
"C[C@H](COc1ccc(F)nc1)N(C)C.Cc1ccc(S(=O)(=O)O)cc1 [Example 30, 5-[(R)-2-dimethylamino-1-propyloxy]-2-fluoro pyridine p-toluenesulfonic acid]",70.2,* (no effect at 62),,
"C[C@@H](COc1ccc(F)nc1)N(C)C.Cc1ccc(S(=O)(=O)O)cc1 [Example 5, 5-[(S)-2-dimethylamino-1-propyloxy]-2-fluoro pyridine p-toluenesulfonic acid]",100,* (no effect at 62),,
"CN[C@@H](C)COc1cnc(Cl)c(Br)c1.Cc1ccc(S(=O)(=O)O)cc1 [Example 9, 5-[(S)-2-methylamino-1-propyloxy]-2-chloro-3-bromo pyridine p-toluenesulfonic acid]",10.9,** (no effect at 6.2),,
"Cc1cc(OC[C@@H](C)N)cnc1Cl.Cc1ccc(S(=O)(=O)O)cc1 [Example 35, 5-[(R)-2-amino-1-propyloxy]-2-chloro-3-methyl pyridine p-toluenesulfonic acid]",0.985,,62,
"C[C@H](N)COc1cnc(Cl)c(Br)c1.Cc1ccc(S(=O)(=O)O)cc1 [Example 7, 5-[(S)-2-amino-1-propyloxy]-2-chloro-3-bromo pyridine p-toluenesulfonic acid]",1.55,* (no effect at 62),,
"CC(N)COc1ccc(Cl)nc1 (stereo in doubt) [Example 26, 5-[(S)-2-amino-1-propyloxy]-2-chloro pyridine p-toluenesulfonic acid]",,,62,5.34
"CN[C@H](C)COc1cnc(Cl)c(C)c1.Cc1ccc(S(=O)(=O)O)cc1 [Example 37, 5-[(R)-2-methylamino-1-propyloxy]-2-chloro-3-methyl pyridine p-toluenesulfonic acid]",0.565,* (no effect at 62),,
"CC[C@H](N)COc1cnc(Cl)c(Br)c1.Cc1ccc(S(=O)(=O)O)cc1 [Example 18, 5-[(S)-2-amino-1-butyloxy]-2-chloro-3-bromo pyridine p-toluenesulfonic acid]",14.8,* (no effect at 62),,
"C[C@@H](COc1ccc(Cl)nc1)N(C)C.Cc1ccc(S(=O)(=O)O)cc1 [Example 2, 5-[(S)-2-dimethylamino-1-propyloxy]-2-chloro pyridine p-toluenesulfonic acid]",,,62,
"C[C@@H](N)COc1cnc(Cl)c(Br)c1.Cc1ccc(S(=O)(=O)O)cc1 [Example 32, 5-[(R)-2-amino-1-propyloxy]-2-chloro-3-bromo pyridine p-toluenesulfonic acid]",1.54,,62,
5-[(S)-2-amino-3-phenyl-1-propyloxy]-2-chloro-3-(4-vinylpyridinyl) pyridine di-p-toluenesulfonic acid [Example 23],9.89,* (no effect at 62),,
"CN[C@H](C)COc1ccc(Cl)nc1.Cc1ccc(S(=O)(=O)O)cc1 [Example 28, 5-[(R)-2-methylamino-1-propyloxy]-2-chloropyridine p-toluenesulfonic acid]",5.87,,62,
"C[C@@H](COc1cnc(Cl)c(Br)c1)N(C)C.Cc1ccc(S(=O)(=O)O)cc1 [Example 8, 5-[(S)-2-dimethylamino-1-propyloxy]-2-chloro-3-bromo pyridine p-toluenesulfonic acid]",30.8,,62,
"CC(COc1ccc(Cl)nc1)N(C)C (stereo in doubt) [Example 27, 5-[(S)-2-dimethylamino-1-propyloxy]-2-chloro pyridine p-toluenesulfonic acid]",,* (no effect at 62),,
"C[C@@H](N)COc1ccc(F)nc1.Cc1ccc(S(=O)(=O)O)cc1 [Example 29, 5-[(R)-2-amino-1-propyloxy]-2-fluoro pyridine p-toluenesulfonic acid]",6.6,,62,
"CN[C@@H](C)COc1ccc(F)nc1.Cc1ccc(S(=O)(=O)O)cc1 [Example 6, 5-[(S)-2-methylamino-1-propyloxy]-2-fluoro pyridine p-toluenesulfonic acid]",68.9,* (no effect at 62),,
"Cc1cc(OC[C@@H](C)N(C)C)cnc1Cl.Cc1ccc(S(=O)(=O)O)cc1 [Example 36, 5-[(R)-2-dimethylamino-1-propyloxy]-2-chloro-3-methyl pyridine p-toluenesulfonic acid]",7.2,* (no effect at 62),,
"C[C@H](N)COc1cnc(Cl)c(C=Cc2ccncc2)c1.Cc1ccc(S(=O)(=O)O)cc1 [Example 13, 5-[(S)-2-amino-1-propyloxy]-2-chloro-3-(4-vinylpyridinyl) pyridine p-toluenesulfonic acid]",0.0761,* (no effect at 62),,
"CN[C@@H](C)COc1ccc(Cl)nc1.Cc1ccc(S(=O)(=O)O)cc1 [Example 3, 5-[(S)-2-methylamino-1-propyloxy]-2-chloro pyridine p-toluenesulfonic acid]",40.6,,62,
"C[C@H](N)COc1ccc(F)nc1.Cc1ccc(S(=O)(=O)O)cc1 [Example 4, 5-[(S)-2-amino-1-propyloxy]-2-fluoro pyridine p-toluenesulfonic acid]",8.69,,6.2,
"CN[C@H](C)COc1ccc(F)nc1.Cc1ccc(S(=O)(=O)O)cc1 [Example 31, 5-[(R)-2-methylamino-1-propyloxy]-2-fluoro pyridine p-toluenesulfonic acid]",11.4,,62,
"C[C@H](N)COc1ccc(Cl)nc1.Cc1ccc(S(=O)(=O)O)cc1 [Example 1, 5-[(S)-2-amino-1-propyloxy]-2-chloro pyridine p-toluenesulfonic acid]",4.51,,62,
"Cc1cc(OC[C@H](C)N)cnc1Cl.Cc1ccc(S(=O)(=O)O)cc1 [Example 10, 5-[(S)-2-amino-1-propyloxy]-2-chloro-3-methyl pyridine p-toluenesulfonic acid]",0.525,,62,
